From article PMC12155096 (International Journal of Molecular Sciences, 2025)

How the values were obtained:
human CYP2C19 = human CYP2C19 (Homo sapiens, UniProt P33261)
human CYP1A2 = biological target: T1, human CYP1A2 (Homo sapiens, UniProt P05177)
T1 sequence (P05177 1-516): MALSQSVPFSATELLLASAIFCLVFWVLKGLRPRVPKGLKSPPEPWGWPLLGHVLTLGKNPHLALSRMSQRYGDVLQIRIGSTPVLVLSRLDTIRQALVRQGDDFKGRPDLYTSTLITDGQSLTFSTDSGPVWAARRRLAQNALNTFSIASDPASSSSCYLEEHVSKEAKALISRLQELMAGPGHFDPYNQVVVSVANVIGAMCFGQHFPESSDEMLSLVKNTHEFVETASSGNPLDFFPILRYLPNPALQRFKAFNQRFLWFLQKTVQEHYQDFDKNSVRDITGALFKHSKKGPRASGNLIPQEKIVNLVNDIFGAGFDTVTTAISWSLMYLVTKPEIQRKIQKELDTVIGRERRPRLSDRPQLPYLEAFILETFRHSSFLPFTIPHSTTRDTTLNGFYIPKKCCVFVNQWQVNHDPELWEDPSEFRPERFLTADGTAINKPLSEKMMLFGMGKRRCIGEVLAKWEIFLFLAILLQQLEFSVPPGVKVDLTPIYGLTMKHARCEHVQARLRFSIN

CYP3A4 = CYP3A4 (Homo sapiens, UniProt P08684)
human CYP2D6 = human CYP2D6 (Homo sapiens, UniProt P10635)
human CYP2C9 = human CYP2C9 (Homo sapiens, UniProt P11712)
Chain of human CYP2C9 (P11712 whole entry): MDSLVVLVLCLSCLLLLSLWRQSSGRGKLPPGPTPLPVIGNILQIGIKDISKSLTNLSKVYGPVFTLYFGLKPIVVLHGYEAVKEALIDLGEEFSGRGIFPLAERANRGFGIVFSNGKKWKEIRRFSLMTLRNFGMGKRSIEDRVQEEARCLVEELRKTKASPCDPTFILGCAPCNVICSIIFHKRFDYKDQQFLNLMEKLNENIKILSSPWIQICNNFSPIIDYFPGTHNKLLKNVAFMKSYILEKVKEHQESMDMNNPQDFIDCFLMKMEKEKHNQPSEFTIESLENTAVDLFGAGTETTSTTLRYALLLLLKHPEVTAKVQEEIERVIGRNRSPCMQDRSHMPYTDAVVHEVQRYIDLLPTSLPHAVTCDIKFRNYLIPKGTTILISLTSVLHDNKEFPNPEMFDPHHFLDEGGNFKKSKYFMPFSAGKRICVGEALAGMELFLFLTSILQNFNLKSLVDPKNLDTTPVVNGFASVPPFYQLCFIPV

Chain of human CYP2C19 (P33261 whole entry): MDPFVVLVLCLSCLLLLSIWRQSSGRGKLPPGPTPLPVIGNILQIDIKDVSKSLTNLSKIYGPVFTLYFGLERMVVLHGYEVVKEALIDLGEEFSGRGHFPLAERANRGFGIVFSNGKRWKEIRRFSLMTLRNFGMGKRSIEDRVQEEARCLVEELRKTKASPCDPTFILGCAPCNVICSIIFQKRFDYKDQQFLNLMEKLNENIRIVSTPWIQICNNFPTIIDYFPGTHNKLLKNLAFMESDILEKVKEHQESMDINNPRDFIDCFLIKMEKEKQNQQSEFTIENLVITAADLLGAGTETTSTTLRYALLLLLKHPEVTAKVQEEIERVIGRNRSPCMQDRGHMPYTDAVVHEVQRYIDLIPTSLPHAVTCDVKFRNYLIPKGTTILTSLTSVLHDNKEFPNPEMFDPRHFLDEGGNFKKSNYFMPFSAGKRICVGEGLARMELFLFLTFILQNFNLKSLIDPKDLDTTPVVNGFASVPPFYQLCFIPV
Chain of human CYP2D6 (P10635 whole entry): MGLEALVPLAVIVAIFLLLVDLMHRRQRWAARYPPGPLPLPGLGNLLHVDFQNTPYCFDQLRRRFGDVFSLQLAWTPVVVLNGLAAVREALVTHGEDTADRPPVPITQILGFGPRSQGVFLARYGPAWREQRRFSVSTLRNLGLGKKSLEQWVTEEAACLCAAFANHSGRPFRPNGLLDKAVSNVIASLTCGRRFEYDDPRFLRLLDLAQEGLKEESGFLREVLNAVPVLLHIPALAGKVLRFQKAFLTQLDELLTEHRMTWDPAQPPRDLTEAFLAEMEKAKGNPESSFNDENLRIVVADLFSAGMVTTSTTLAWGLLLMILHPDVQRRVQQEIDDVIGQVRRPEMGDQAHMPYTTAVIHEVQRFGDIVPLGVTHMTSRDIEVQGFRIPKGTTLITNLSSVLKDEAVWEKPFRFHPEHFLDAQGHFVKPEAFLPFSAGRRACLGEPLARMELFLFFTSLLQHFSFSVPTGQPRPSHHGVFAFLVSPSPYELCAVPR
Chain of CYP3A4 (P08684 whole entry): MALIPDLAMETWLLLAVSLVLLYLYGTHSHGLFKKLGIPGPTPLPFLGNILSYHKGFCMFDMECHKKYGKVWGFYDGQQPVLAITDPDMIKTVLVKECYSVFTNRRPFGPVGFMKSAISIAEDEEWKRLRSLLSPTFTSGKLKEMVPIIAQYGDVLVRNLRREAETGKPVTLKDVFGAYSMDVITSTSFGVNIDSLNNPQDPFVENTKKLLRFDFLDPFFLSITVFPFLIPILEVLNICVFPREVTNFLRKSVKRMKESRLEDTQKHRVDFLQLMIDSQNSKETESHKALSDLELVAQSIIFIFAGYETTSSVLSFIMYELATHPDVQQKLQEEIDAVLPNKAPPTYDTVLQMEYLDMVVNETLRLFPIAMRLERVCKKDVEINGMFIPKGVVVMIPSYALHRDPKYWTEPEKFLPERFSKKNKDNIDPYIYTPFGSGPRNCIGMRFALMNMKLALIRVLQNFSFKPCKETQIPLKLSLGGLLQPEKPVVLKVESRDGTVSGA

Compound | CYP2C19 AC50 (half-maximal activity concentration) (human CYP2C19) | CYP1A2 AC50 (half-maximal activity concentration) (human CYP1A2) | AC50 (CYP3A4) | CYP2D6 AC50 (half-maximal activity concentration) (human CYP2D6) | AC50 (human CYP2C9) | AC50 (human CYP2C19) | AC50 (human CYP1A2) | other results
CCC(=O)O[C@@H]1C=C2CC[C@@H]3[C@H](CC[C@]4(C)[C@@H](OC(=O)CC)CC[C@@H]34)C2CC1 (some centres unmarked) [Bolandiol dipropionate] | Inactive | Inconclusive inhibitor | 10.6 µM | Inactive | 15.5 µM | – | – | –
CCOP(=S)(OCC)Oc1cc(Cl)c(Br)cc1Cl [Bromophos-ethyl] | – | – | – | – | – | – | – | CYP2C19 Efficacy (in parenthesis) (human CYP2C19; human): 0.71 ± 0.08 (-121 ± 12) %; CYP1A2 Efficacy (in parenthesis) (human CYP1A2; human): 3.3 ± 0.22 (-98 ± 3) %; CYP3A4 Efficacy (in parenthesis) (CYP3A4): 1.97 ± 0.48 (-79 ± 2) %; CYP2D6 IC50 (half-maximal inhibitory concentration) (human CYP2D6): Inactive; CYP2C9 Efficacy (in parenthesis) (human CYP2C9; human): 2.36 ± 0.42 (-102 ± 2) %
O=[N+]([O-])c1ccc(Nc2ccc(Nc3ccccc3)c(S(=O)(=O)[O-])c2)c([N+](=O)[O-])c1.[Na+] [C.I. Acid Orange 3] | Inconclusive inhibitor | Inactive | 62.6 µM | Inactive | 34.3 µM | – | – | –
N.N.O=C([O-])C1(C(=O)[O-])CCC1.[Pt+2] [Carboplatin] | – | – | 31.3 µM | – | 9.46 µM | 17.7 µM | 15.6 µM | AC50 (human CYP2D6): 28.7 µM
CC(=O)[O-].CC(=O)[O-].CC(=O)[O-].[Cr+3] [Chromium(III) acetate] | Inactive | Inactive | 69.6 µM | Inactive | 96.3 µM | – | – | –
CCOC(=O)COc1ccc2c(C)c(CCN(CC)CC)c(=O)oc2c1Cl.Cl [Cloricromen hydrochloride] | Inactive | Inconclusive inhibitor | 16.8 µM | – | – | – | – | AC50 (human CYP2D6): 18.2 µM; CYP2C9 AC50 (half-maximal activity concentration) (human CYP2C9): Inactive
O=C(O)C1(C(=O)Nc2ccc(Cl)cc2Cl)CC1 [Cyclanilide] | Inconclusive inhibitor | – | 55.5 µM | – | 18.7 µM | – | 60.6 µM | AC50 (human CYP2D6): 66.8 µM
CC(=O)O[C@H]1CC[C@@]2(C)C(=CC[C@@H]3[C@@H]2CC[C@]2(C)C(C(C)=O)=CC[C@@H]32)C1 [Dehydropregnenolone acetate] | Inactive | Inactive | 4.44 µM | Inactive | – | – | – | CYP2C9 AC50 (half-maximal activity concentration) (human CYP2C9): Inactive
COC(=O)CCCCCCCC(=O)OC [Dimethyl nonanedioate] | Inconclusive inhibitor | – | 58.1 µM | Inconclusive inhibitor | – | – | 40.1 µM | CYP2C9 AC50 (half-maximal activity concentration) (human CYP2C9): Inconclusive inhibitor
O=C(Oc1ccccc1)c1cccc(C(=O)Oc2ccccc2)c1 [Diphenyl isophthalate] | – | – | 20.9 µM | – | 9.46 µM | 9.89 µM | 36.1 µM | AC50 (human CYP2D6): 36.5 µM
CC(=O)O[C@@H]1C[C@H]2[C@@H]3CCc4cc(OC(=O)c5ccccc5)ccc4[C@H]3CC[C@]2(C)[C@H]1OC(C)=O [Estriol benzoate diacetate] | Inactive | Inactive | 3.74 µM | Inactive | 22.8 µM | – | – | –
CCC(=O)Oc1ccc2c(c1)CC[C@@H]1[C@@H]2CC[C@@]2(C)[C@H]1C[C@@H](OC(=O)CC)[C@@H]2OC(=O)CC [Estriol tripropionate] | – | Inconclusive inhibitor | 4.92 µM | Inconclusive inhibitor | 19.8 µM | 29.9 µM | – | –
CCOC(=O)C(C#N)=C(c1ccccc1)c1ccccc1 [Ethyl 2-cyano-3,3-diphenylacrylate] | – | – | 7.23 µM | Inconclusive inhibitor | 3.75 µM | 4.01 µM | 1.87 µM | –
CCOC(=O)c1ccc(O)c(O)c1 [Ethyl protocatechuate] | Inactive | – | – | Inactive | 32.2 µM | – | 27.2 µM | CYP3A4 AC50 (half-maximal activity concentration) (CYP3A4): Inactive
C[C@]12CC[C@H]3[C@@H](CCC4=CC(=O)CC[C@@]43C)[C@@H]1CC[C@@H]2C(=O)O [Etienic acid] | Inactive | Inactive | 20.8 µM | Inactive | 21.2 µM | – | – | –
CN1CCC(Nc2ncc3ncnc(Nc4ccc(F)c(Cl)c4)c3n2)CC1.Cl.Cl [Falnidamol dihydrochloride] | Inactive | Inactive | 14.4 µM | – | – | – | – | AC50 (human CYP2D6): 18.4 µM; CYP2C9 AC50 (half-maximal activity concentration) (human CYP2C9): Inactive

Compound | CYP2C19 AC50 (half-maximal activity concentration) (human CYP2C19) | CYP1A2 AC50 (half-maximal activity concentration) (human CYP1A2) | AC50 (CYP3A4) | CYP2D6 AC50 (half-maximal activity concentration) (human CYP2D6) | AC50 (human CYP2C9) | AC50 (human CYP2C19) | AC50 (human CYP1A2) | other results
O=C(NCc1ncc(C(F)(F)F)cc1Cl)c1c(Cl)cccc1Cl [Fluopicolide] | – | – | 12.6 µM | – | 4.13 µM | 18.6 µM | 33 µM | AC50 (human CYP2D6): 6.57 µM
C/C=C1/C(=O)C[C@H]2[C@@H]3CCC4=CC(=O)CC[C@]4(C)[C@H]3CC[C@]12C [Guggulsterone E] | – | Inconclusive inhibitor | 1.82 µM | Inactive | 19.6 µM | 4.67 µM | – | –
C/C=C1\C(=O)C[C@H]2[C@@H]3CCC4=CC(=O)CC[C@]4(C)[C@H]3CC[C@]12C [Guggulsterone Z] | – | Inactive | 3.8 µM | Inactive | 24.8 µM | 6.83 µM | – | –
O=C(OCCCCCCOC(=O)c1ccccc1)c1ccccc1 [Hexane-1,6-diyl dibenzoate] | – | – | 24 µM | Inactive | 10.6 µM | 83.2 µM | 3.43 µM | –
Cl.Nc1c2c(nc3c1CCC3)CCCC2.O [Ipidacrine hydrochloride hydrate] | Inactive | Inconclusive inhibitor | 14.9 µM | – | – | – | – | AC50 (human CYP2D6): 10.7 µM; CYP2C9 AC50 (half-maximal activity concentration) (human CYP2C9): Inactive
CC(C)COC(=O)C=Cc1ccccc1 [Isobutyl 3-phenylacrylate] | – | – | 22.8 µM | Inactive | 44 µM | 80 µM | 17 µM | –
CCOC(=O)C1=NOC(c2ccccc2)(c2ccccc2)C1 [Isoxadifen-ethyl] | – | Inconclusive inhibitor | 34.3 µM | Inconclusive activator | 8.36 µM | 21.6 µM | – | –
COCC(=O)N(c1c(C)cccc1C)[C@H](C)C(=O)OC [Metalaxyl-M] | Inconclusive inhibitor | – | 47.7 µM | Inactive | – | – | 47.7 µM | CYP2C9 AC50 (half-maximal activity concentration) (human CYP2C9): Inactive
COC(=O)Cc1cccc2ccccc12 [Methyl 1-naphthaleneacetate] | – | – | 27.5 µM | Inactive | 41.9 µM | 63.5 µM | 18.8 µM | –
CCS(=O)(=O)c1ccc(OC)c(C(=O)OC)c1 [Methyl 5-(ethylsulfonyl)-o-anisate] | Inconclusive inhibitor | Inactive | – | Inactive | 24.6 µM | – | – | CYP3A4 AC50 (half-maximal activity concentration) (CYP3A4): Inactive
COC(=O)c1cc(S(N)(=O)=O)ccc1OC [Methyl 5-sulfamoyl-o-anisate] | Inactive | Inactive | – | Inactive | 30.9 µM | – | – | CYP3A4 AC50 (half-maximal activity concentration) (CYP3A4): Inactive
CCCCCCC(O)CCCCCCCCCCC(=O)OC (centres unmarked) [Methyl 12-hydroxyoctadecanoate] | Inactive | Inconclusive inhibitor | 27.7 µM | Inactive | 23.8 µM | – | – | –
CCCCCCCCCCCCCOP(=O)(O)O [Monotridecyl phosphate] | – | – | 89.4 µM | Inactive | 56.7 µM | 45.5 µM | 65.1 µM | –
O=C1C=CC(=O)N1c1cccc(N2C(=O)C=CC2=O)c1 [N,N'-1,3-Phenylenedimaleimide] | – | – | 9.83 µM | – | 5.22 µM | 7.04 µM | 12.7 µM | AC50 (human CYP2D6): 36.3 µM
CN(C)CCc1c[nH]c2ccccc12.O=C(O)/C=C/C(=O)O [N,N-Dimethyltryptamine fumarate] | Inactive | Inactive | 89.9 µM | – | – | – | – | AC50 (human CYP2D6): 34.6 µM; CYP2C9 AC50 (half-maximal activity concentration) (human CYP2C9): Inactive
